# What was measured:
# [1] = test system: hypervirulent Clostridioides difficile strains; test: MIC against hypervirulent Clostridioides difficile strains; format: cell-based
# Experimental: (§1) The antibacterial activity of compounds 48, 50, 51, 61 and 85 against a panel of Clostridioides difficile strains was evaluated. A bacterial solution equivalent to 0.5 McFarland standard was prepared and diluted in brain heart infusion broth supplemented with hemin and vitamin K. Compounds and control drugs were added in the first row of 96-well plates and serially diluted with media containing bacteria (to achieve a concentration gradient ranging from 128 to 1 μg/mL). Plates were then incubated anaerobically at […] for 48 hours.
# Ba. dorsei = test: MIC against human normal gut microbiota: Bacteroides dorsei; format: cell-based
# Text: (§2) The activity of the selected lactones against the human gut microbiota was also examined. Microbiota interfere with C. difficile's ability to colonize the gastrointestinal tract and subsequently cause infection. Many antibiotics inhibit/kill the endogenous microflora, which permits enhanced colonization by C. difficile and infection. Three different bacterial species that are present in the gut microflora were used in this experiment; Bifidobacterium (anaerobic Gram-positive bacteria), Bacteroides (anaerobic Gram-negative bacteria) and Lactobacillus (microaerophilic Gram-positive bacteria). Ideal compounds/drugs are those with selective antibacterial activity against C. difficile so as to protect the indigenous microflora present in the GI tract from being damaged/killed (which will exacerbate infections caused by C. difficile).
# (§3) Bifidobacterium and Bacteroides were first grown for 48 hours at 37° C., anaerobically, using brain heart infusion supplemented (BHIS) agar (brain heart infusion agar supplemented with hemin, vitamin K and L-cysteine). Lactobacillus was cultivated on MRS agar and incubated in the presence of 5% CO2 for 48 hours at 37° C. Each bacterium was suspended in phosphate-buffered saline (PBS) to achieve 0.5 McFarland standard and subsequently diluted in brain heart infusion supplemented broth (for Bifidobacterium and Bacteroides) or in MRS broth (for Lactobacillus) to achieve a bacterial inoculum of approximately 5×10^5 CFU/mL. Bacteria were then seeded in 96-well plates containing serial dilutions of the compounds and incubated for 48 hours. MICs reported in Table 4 are the minimum concentration of compound/control drug that inhibited the visual growth of bacteria.
# L. crispatus = test: MIC against human normal gut microbiota: L. crispatus; format: cell-based, Lactobacillus crispatus
# Text: as §2, §3
# Clostridioides difficile = test: MIC by broth microdilution against Clostridioides difficile (Table 1); format: cell-based; conditions: anaerobic, 48 hours; strain BAA-1870
# Experimental: (§4) Method: The minimum inhibitory concentration (MIC) of the compounds and control drugs, linezolid (antibiotic), vancomycin (antibiotic), 5-fluorocytosine (5-FC, antifungal drug), and fluconazole (antifungal drug) was determined using the broth microdilution method according to the guidelines outlined by the Clinical and Laboratory Standards Institute (CLSI) against clinically relevant bacterial (methicillin-resistant Staphylococcus aureus (MRSA), vancomycin-resistant Enterococcus faecalis (VRE), vancomycin-resistant Enterococcus faecium (VRE), Clostridioides difficile and Escherichia coli) and fungal (Candida albicans) strains. A solution equivalent to 0.5 McFarland standard was prepared from each strain and diluted in cation-adjusted Mueller-Hinton broth (for S. aureus and E. coli), tryptone soy broth (for E. faecalis), or brain heart infusion broth (for E. faecium) to achieve a bacterial inoculum of about 5×10^5 CFU/mL. C. difficile strains were cultured in brain heart infusion broth supplemented with hemin and vitamin K. C. albicans was diluted in RPMI medium supplemented with 3-(N-morpholino) propanesulfonic acid to achieve a fungal concentration of about 1.5×10^3 CFU/mL. Compounds and control drugs were added in the first row of the 96-well plates and diluted with media containing bacteria (to achieve a concentration gradient ranging from 128 to 1 μg/mL). For MRSA, VRE, and E. coli strains, plates were then incubated aerobically at 37° C. for at least 18 hours. C. albicans was incubated aerobically at 37° C. for 24 hours. Plates containing C. difficile were incubated anaerobically at […] for 48 hours.
# L. casei = test: MIC against human normal gut microbiota: L. casei; format: cell-based, Lactobacillus casei; conditions: L. casei HM 334
# Text: as §2, §3
# E. faecium = test: Broth microdilution against vancomycin-resistant E. faecium; format: cell-based, Enterococcus faecium; conditions: gradient 128 to 1 μg/mL
# Experimental: as §4
# [2] = test system: clinically important Clostridioides difficile strains; test: MIC against clinically important Clostridioides difficile strains; format: cell-based
# Experimental: as §1
# MRSA (USA300) = test: microbe, parasite or virus in culture; format: cell-based, Staphylococcus aureus; conditions: aerobic, 37° C., at least 18 hours
# Experimental: as §4
# E. coli (TolC mutant) = test: MIC by broth microdilution against E. coli (TolC mutant); format: cell-based, Escherichia coli; conditions: for MIC E. coli (TolC mutant): aerobic, 37° C., at least 18 hours
# Experimental: as §4
# E. faecalis (VRE) = test: microbe, parasite or virus in culture; format: cell-based, Enterococcus faecalis; conditions: aerobic, 37° C., at least 18 hours
# Experimental: as §4
# Bi. breve = test: MIC against human normal gut microbiota: Bifidobacterium breve; format: cell-based; conditions: Bi. breve HM 856
# Text: as §2, §3
# C. albicans = test: Broth microdilution against Candida albicans; format: cell-based; conditions: gradient 128 to 1 μg/mL, 24 hours
# Experimental: as §4
# Bi. longum = test: MIC against human normal gut microbiota: Bifidobacterium longum; format: cell-based; conditions: Bi. longum HM 848
# Text: as §2, §3
# Ba. fragilis = test: MIC against human normal gut microbiota: Bacteroides fragilis; format: cell-based
# Text: as §2, §3
# L. gasseri = test: MIC against human normal gut microbiota: L. gasseri; format: cell-based, Lactobacillus gasseri; conditions: L. gasseri HM 407
# Text: as §2, §3
# L. reuteri = test: MIC against human normal gut microbiota: L. reuteri; format: cell-based, Lactobacillus reuteri; conditions: L. reuteri HM 120
# Text: as §2, §3
compound,measurement,setting,value
C=C1C(=O)O[C@H](c2c(OC)cc(OC)cc2OC)[C@@H]1c1ccc(C(F)(F)F)cc1 (racemic) [Compound 61],MIC,[1]; CD strain 81,16 µg/mL
same,MIC,[1]; CD strain 82,16 µg/mL
same,MIC,[1]; CD strain 83,64 µg/mL
same,MIC,[1]; CD strain 84,64 µg/mL
same,MIC,[1]; CD strain 85,64 µg/mL
same,MIC,[1]; CD strain 86,32 µg/mL
same,MIC,[1]; CD strain 87,8 µg/mL
same,MIC,[1]; CD strain 90,16 µg/mL
same,MIC,[1]; CD strain 49279,64 µg/mL
same,MIC,[1]; CD strain 49287,8 µg/mL
same,MIC,[1]; CD strain 49291,8 µg/mL
same,MIC,Ba. dorsei; Ba. dorsei HM 29,>128 µg/mL
same,MIC,Ba. dorsei; Ba. dorsei HM 717,>128 µg/mL
same,MIC,L. crispatus; L. crispatus HM 375,>128 µg/mL
same,MIC,L. crispatus; L. crispatus HM 421,>128 µg/mL
same,MIC Clostridioides difficile,Clostridioides difficile,8 µg/mL
same,MIC,L. casei,>128 µg/mL
same,inhibition of the tested strains of E. faecium,E. faecium,did not inhibit
same,MIC,[2]; CD strain 16,16 µg/mL
same,MIC,[2]; CD strain 18,2 µg/mL
same,MIC,[2]; CD strain 19,8 µg/mL
same,MIC,[2]; CD strain 1801,16 µg/mL
same,MIC,[2]; CD strain 43255,4 µg/mL
same,MIC,[2]; CD strain P6,8 µg/mL
same,MIC,[2]; CD strain P7,8 µg/mL
same,MIC,[2]; CD strain P13,8 µg/mL
same,MIC,[2]; CD strain P19,8 µg/mL
same,MIC MRSA (USA300),MRSA (USA300),>128 µg/mL
same,MIC E. coli (TolC mutant),E. coli (TolC mutant),>128 µg/mL
same,MIC E. faecalis (VRE),E. faecalis (VRE),>128 µg/mL
same,MIC,Bi. breve,>128 µg/mL
same,activity against C. albicans,C. albicans,inactive
same,MIC,Bi. longum,>128 µg/mL
same,MIC,Ba. fragilis; Ba. fragilis HM 709,>128 µg/mL
same,MIC,Ba. fragilis; Ba. fragilis HM 710,>128 µg/mL
same,MIC,Ba. fragilis; Ba. fragilis HM 711,>128 µg/mL
same,MIC,Ba. fragilis; Ba. fragilis HM 714,>128 µg/mL
same,MIC,L. gasseri,>128 µg/mL
same,MIC,L. reuteri,>128 µg/mL
C=C1C(=O)O[C@H](c2ccc(OCc3ccccc3)c(OC(C)=O)c2)[C@@H]1c1ccccc1Br (racemic) [Compound 85],MIC,[1]; CD strain 81,4 µg/mL
same,MIC,[1]; CD strain 82,2 µg/mL
same,MIC,[1]; CD strain 83,4 µg/mL
same,MIC,[1]; CD strain 84,4 µg/mL
same,MIC,[1]; CD strain 85,2 µg/mL
same,MIC,[1]; CD strain 86,4 µg/mL
same,MIC,[1]; CD strain 87,2 µg/mL
same,MIC,[1]; CD strain 90,2 µg/mL
same,MIC,[1]; CD strain 49279,4 µg/mL
same,MIC,[1]; CD strain 49287,2 µg/mL
same,MIC,[1]; CD strain 49291,2 µg/mL
same,MIC,Ba. dorsei; Ba. dorsei HM 29,>128 µg/mL
same,MIC,Ba. dorsei; Ba. dorsei HM 717,>128 µg/mL
same,MIC,L. crispatus; L. crispatus HM 375,>128 µg/mL
same,MIC,L. crispatus; L. crispatus HM 421,>128 µg/mL
same,MIC Clostridioides difficile,Clostridioides difficile,4 µg/mL
same,MIC,L. casei,>128 µg/mL
same,inhibition of the tested strains of E. faecium,E. faecium,did not inhibit
same,MIC,[2]; CD strain 16,4 µg/mL
same,MIC,[2]; CD strain 18,4 µg/mL
same,MIC,[2]; CD strain 19,4 µg/mL
same,MIC,[2]; CD strain 1801,2 µg/mL
same,MIC,[2]; CD strain 43255,4 µg/mL
same,MIC,[2]; CD strain P6,4 µg/mL
same,MIC,[2]; CD strain P7,4 µg/mL
same,MIC,[2]; CD strain P13,4 µg/mL
same,MIC,[2]; CD strain P19,2 µg/mL
same,MIC MRSA (USA300),MRSA (USA300),>128 µg/mL
same,MIC E. coli (TolC mutant),E. coli (TolC mutant),>128 µg/mL
same,MIC E. faecalis (VRE),E. faecalis (VRE),>128 µg/mL
same,MIC,Bi. breve,>128 µg/mL
same,activity against C. albicans,C. albicans,inactive
same,MIC,Bi. longum,>128 µg/mL
same,MIC,Ba. fragilis; Ba. fragilis HM 709,>128 µg/mL
same,MIC,Ba. fragilis; Ba. fragilis HM 710,>128 µg/mL
same,MIC,Ba. fragilis; Ba. fragilis HM 711,>128 µg/mL
same,MIC,Ba. fragilis; Ba. fragilis HM 714,>128 µg/mL
same,MIC,L. gasseri,>128 µg/mL
same,MIC,L. reuteri,>128 µg/mL
"CC(=O)NC[C@H]1CN(c2ccc(N3CCOCC3)c(F)c2)C(=O)O1 [Linezolid, reference compound]",MIC,"MRSA (USA300); Staphylococcus aureus, read-out: MIC MRSA (USA300)",1 µg/mL
same,MIC,"E. coli (TolC mutant); Escherichia coli, 18 h, read-out: MIC E. coli (TolC mutant)",16 µg/mL
same,MIC,"E. faecalis (VRE); Enterococcus faecalis, VRE",1 µg/mL
